# Entries after “also recorded” stand apart in the source; their conditions may differ. No end group written: not given here.
# How the values were obtained:
# hepatocarcinomas = assay: Subcutaneous tumor transplant model (Example 9); format: in vivo, mice; details: subcutaneous transplants, C57BL/6, 50 μg/ml in-situ for 7 days
# Description: (§1) 1.—Tumor cells. The cells used are: Hepa1-6, murine hepatocarcinoma, TC-1, murine lung carcinoma; B16F10, murine melanoma; A-375, human melanoma; hamster melanoma (ATCC).
# (§2) 4.—Subcutaneous tumor transplant model. 8-12 week old females of the strain C57BL/6 are inoculated in the right flank with 1×10^5 tumor cells for 7 days in order to develop a measurable tumor (4-6 mm thickness). Subsequently, the tumors are inoculated in-situ with 50 μg/ml of the GNP-LLO91-99 gold nanoparticles for 7 days. The size of the tumors is measured with a gauge and is expressed in volume using the following formula: (length×(width)^2)/2.
# melanomas = assay: Subcutaneous tumor transplant model (Example 9); format: in vivo, mice; details: subcutaneous transplants, C57BL/6, 50 μg/ml in-situ for 7 days
# Description: as §1, §2
# lung cancer cells = assay: Subcutaneous tumor transplant model (Example 9); format: in vivo, mice; details: subcutaneous transplants, C57BL/6, 50 μg/ml in-situ for 7 days
# Description: as §1, §2
# ovary tumor cells = assay: Subcutaneous tumor transplant model (Example 9); format: in vivo, mice; details: subcutaneous transplants, C57BL/6, 50 μg/ml in-situ for 7 days
# ovary tumor cells (CHO) = assay: In vitro activation cell markers, flow cytometry; format: cell-based, hamster; details: 10 μg/ml pre-treatment
# Description: as §1
# (§3) 3.—Study of in vitro activation cell markers. The markers of the cell surface of the different tumor cells (1×10^6 cells) that are pre-treated or that are not pre-treated with 10 μg/ml of the GNP-LLO91-99 gold nanoparticles similar to the apoptosis process are analyzed by means of flow cytometry using the following antibodies (Miltenyi Biotech): anti-CD86-V450, anti-CD80-FITC, anti-MHC-II-APC, CD11c-PE, anti-NCAM-PE, anti-PD-1-V450.
# murine melanoma B16F10 = assay: Metastasis in the lung from murine melanoma (Example 3); format: in vivo, mice; details: s.c. B16F10, 50 μg/ml inoculated in the tumors for 5 days
# Description: For the study of metastasis in the lung of murine melanoma following the use of different therapies and their comparison with that of the invention, 1×10^6 cells of murine melanoma B16F10 were inoculated in a subcutaneous manner just like in FIG. 1. Following 7 days post-inoculation, 50 μg/ml of the following therapeutic particles were inoculated in the tumors for 5 days: GNP (empty gluconanoparticles), GNP-LLO91-99 (gluconanoparticles synthesized with the peptide from listeriolysin O of Listeria monocytogenes, LLO91-99), GNP-GAPDH1-22 (nanoparticles synthesized with the peptide from glyceraldehyde-3-phosphate dehydrogenase of Listeria monocytogenes, GAPDH1-22) or no particle (NT). As a control, the vector previously used in therapy was also included consisting of dendritic cells loaded with the LLO91-99 (1×10^6 DC-LLO91-99) peptide.
# Following this treatment, the mice were sacrificed and the lungs removed, which were washed with PBS. Subsequently, the tumor nodules were counted under a magnifying glass, which were observed as black spots on the lungs.
# murine melanoma B16OVA [1] = assay: Reduction of tumor size, monotherapy or combination with immunological control point immunotherapies (Example 4); format: in vivo, mice; details: s.c. B16OVA
# Description: For the study of the reduction of the tumor in adults and increasing the survival making use of different immunotherapies with immunological control points and their comparison as a monotherapy or combination therapy with that of the invention, 5×10^5 cells of murine melanoma B16OVA were inoculated in a subcutaneous manner just like in FIG. 1 (Example 2). Following 7 days post-inoculation, 50 μg/ml of the therapy of the invention were inoculated in the tumors for 7 days as a monotherapy, GNP-LLO91-99 (gluconanoparticles synthesized with the peptide from listeriolysin O of Listeria monocytogenes, LLO91-99), or in combination with the following immunotherapies with immunological control points, anti-CTLA-4 or anti-PD-1 in a dose of 100 μg/mouse every 2 days up to a total of 7 days or no particle (NT).
# Following this treatment, the mice were sacrifice at different times following the therapies, 14, 21 or 30 days in total. The results are shown in FIG. 3A following the sacrifice of the mice, recovery of the tumors and measuring of their size with a gauge. In another similar experiment, the mice are not sacrificed and the effect of the therapies is evaluated in the survival of the mice.
# glioblastoma (RG-1) [2] = assay: In vitro activation cell markers, flow cytometry; format: cell-based; details: 10 μg/ml pre-treatment
# Description: as §3
# glioblastoma (RG-1) [3] = assay: In vitro apoptosis-necrosis, flow cytometry annexin V-APC / 7-ADD; format: cell-based; details: 10 μg/ml, 16 hours
# Description: 2.—In vitro apoptosis-necrosis. The different tumor cells (1×10^6 cells) are treated with 10 μg/ml of the GNP-LLO91-99 gold nanoparticles in culture plates, 16 hours prior to the apoptosis-necrosis analysis, including cells of each type of tumor without treatment with the gold nanoparticles (control). Following washing, the cells are analyzed by means of flow cytometry using two specific products, annexin V conjugated with the APC fluorochrome and the fluorescent marker for binding to DNA, 7-ADD (7-amino-actinomycin D). Apoptosis and necrosis in the tumor cells are analyzed by means of the differential marking with annexin V-APC and 7-ADD expressed as percentages. While the necrosis is indicated as the percentage of cells doubly marked with annexin V-APC and 7-ADD, the apoptosis is expressed as the percentage of cells marked only with annexin V.
# murine melanoma B16OVA [4] = assay: Prevention of tumor growth, intraperitoneal melanoma after preventive treatment (Example 5); format: in vivo, mice
# Description: For the comparative study of the prevention of tumor growth in adults between the therapy of the invention and known anti-tumor therapies, the following therapies (50 μg/ml) were inoculated in female adults of the C57BL/6 strain in an intraperitoneal manner: LLO91-99 (only peptide from listeriolysin O of Listeria monocytogenes, LLO91-99), GNP (empty gluconanoparticles), GNP-LLO91-99 (gluconanoparticles synthesized with the peptide from listeriolysin O of Listeria monocytogenes, LLO91-99), GNP-GAPDH1-22 (nanoparticles synthesized with the peptide from glyceraldehyde-3-phosphate dehydrogenase of Listeria monocytogenes, GAPDH1-22) or saline (NT).
# Following 7 days preventative post-treatment, the tumors were established following inoculation with 5×10^6 cells of murine melanoma B16OVA in an intraperitoneal manner. Following 7 days post-established of the tumor, the mice were sacrificed and the recovered tumors were measured by means of a gauge and the tumors were analyzed by means of immunohistochemical staining. The results of the reduction of the tumor growth and their intraperitoneal position are shown in FIG. 4A and FIG. 4B and the results of the analysis of the immunohistochemical staining in FIG. 4C.
substance,measurement,setting,value
"GNP-LLO91-99: gluconanoparticles synthesized with the peptide from listeriolysin O of Listeria monocytogenes, LLO91-99 (GYKDGNEYI; also: gold glyconanoparticle conjugate; UniProt P13128 91-99, looked up, fragment)",in vivo inhibitory effect of the tumor,hepatocarcinomas,inhibitory effect of the tumor is also observed in vivo
same,in vivo inhibitory effect of the tumor,melanomas,inhibitory effect of the tumor is also observed in vivo
same,in vivo inhibitory effect of the tumor,lung cancer cells,inhibitory effect of the tumor is also observed in vivo
same,in vivo inhibitory effect of the tumor,ovary tumor cells,does not cause any effect
same,expression of immune cell activation markers,ovary tumor cells (CHO),did not undergo a variation in any of the markers analyzed
same,formation of metastasis in the lungs (in words),murine melanoma B16F10,prevents the formation of metastasis in the lungs
same,prevention of the formation of metastasis in the lungs,murine melanoma B16F10; lung tumor nodules counted,more than 95%
same,tumor regression,"murine melanoma B16OVA [1]; combination therapy with anti-CTLA-4 (100 μg/mouse every 2 days), at 14 days",up to 90%
same,tumor regression,"murine melanoma B16OVA [1]; combination therapy with anti-CTLA-4 (100 μg/mouse every 2 days), at 30 days",up to 90%
same,tumor regression,"murine melanoma B16OVA [1]; combination with anti-PD-1 (100 μg/mouse every 2 days), at 14 days",100%
same,tumor regression,"murine melanoma B16OVA [1]; combination with anti-PD-1 (100 μg/mouse every 2 days), at 30 days",100%
same,tumor regression,"murine melanoma B16OVA [1]; monotherapy, 50 μg/ml in the tumors, 7 days",80%
same,tumor regression,"murine melanoma B16OVA [1]; monotherapy, 50 μg/ml in the tumors, at 14 days",90%
same,tumor regression,"murine melanoma B16OVA [1]; monotherapy, 50 μg/ml in the tumors, at 30 days",90%
same,expression of MHC-I,glioblastoma (RG-1) [2],inhibition
same,expression of MHC-II,glioblastoma (RG-1) [2],no variation
same,expression of NCAM-1,glioblastoma (RG-1) [2],no variation
same,expression of immune cell activation markers,glioblastoma (RG-1) [2],no induction of expression of activation markers
same,effect of inducing apoptosis,glioblastoma (RG-1) [3],not as significant
same,induction of tumor apoptosis and necrosis,glioblastoma (RG-1) [3],induce both necrosis and apoptosis with the same percentages; also recorded: induce both tumor apoptosis and necrosis
same,prevention of tumor growth,"murine melanoma B16OVA [4]; 50 μg/ml intraperitoneal 7 days before i.p. B16OVA, adult C57BL/6, tumors measured 7 days after establishment",90%
same,necrotizing foci in the melanomas,murine melanoma B16OVA [4]; immunohistochemical staining of recovered peritoneal tumors,60%
same,position of the tumor / spreading to other organs,murine melanoma B16OVA [4]; intraperitoneal B16OVA after preventive treatment,positioned intraperitoneally preventing its spreading to other organs
